Values quoted from earlier work in patent US7662581B1, “Eg5 co-crystals” (Novartis Vaccines and Diagnostics, Inc., priority 2003, dated 2010).

Experiments:
[1] = system: HsEg5; details: protein level
[2] = system: DAN-G pancreatic carcinoma cells

For `CC1=C(/C=C/C(C)=C/C=C/C(C)=C/C(=O)O)C(C)(C)CCC1` [ATRA, all trans-retinoic acid], the HsEg5 expression [1] is listed as “reduces HsEg5 expression on protein level” and the growth inhibition [2] is listed as “significant growth inhibition”.
